Experimental data reported in patent publication US20120232062A1, “AZAINDAZOLES TO TREAT FLAVIVIRIDAE VIRUS INFECTION” (EIGER BIOPHARMACEUTICALS, INC., priority 2009, published 2012).
Like-named read-outs stand apart in the source and are kept apart here.

Legend:
HCV genotype 1b = test: HCV 1b replicon luciferase assay; assay type: cell-based
How it was run: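 Luminescence (Steady-Glo) served as the replication read-out after 48 h compound exposure of 1b replicon-luciferase Huh7 cells seeded at 10k/well. Dosing used 5-fold serial dilutions, 10 concentrations, top 25 μM final, 0.1% DMSO, duplicates.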

[1] = Liver microsome stability, human; assay type: in vitro ADME; settings: for liver stability predicted by in vitro PK profiles: human vs rat liver, in words
Description: (§1) Metabolic stability assays are designed to measure the stability of a test compound in a variety of assay matrices from human and animal species. From a metabolism perspective, a drug would be relatively stable, have a small first-pass effect, and maintain an effective concentration in blood for a reasonable period of time. A microsomal preparation from the liver contains all CYP isozymes and other membrane-bound drug metabolizing enzymes which are responsible for the metabolism for the majority of drugs in humans. Metabolic stability in liver microsomes can determine half-life (T1/2) and intrinsic clearance (Clint). The determination of Clint may be useful to determine whether metabolism is the major elimination pathway when it is compared to total body clearance in vivo. For high metabolic stability in liver microsomes: […] Human, Sprague Dawley rat, and CD-1 mouse liver microsome samples were purchased from BD Gentest. An in vitro metabolic stability assay suitable for use in predicting first pass metabolism of the compounds useful in the methods of the invention is described in this example. […] 6 mM NADPH in 0.1 M K-phosphate buffer is prepared by dissolving 25.1 mg of NADPH tetrasodium salt in 5 mL of K-phosphate buffer. […] The plate is pre-incubated at 37° C. for 10 minutes. 15 μL of NADPH stock solution (6 mM) is added to the wells designated for Time 60 and timed. At 30 min, 15 min, and 5 min, 15 μL of NADPH stock solution (6 mM) is added to the wells. At the end of incubation, 135 μL of ACN containing IS is added to all the wells (60 min, 30 min, 15 min, 5 min and 0 min). Then 15 μL of NADPH stock solution (6 mM) is added to the wells designated as Time 0.

[2] = Liver microsome stability, rat; assay type: in vitro ADME, Sprague Dawley rat
Description: as §1

[3] = Hepatitis C virus, read-out: 1b replicon EC50, Tables 4, 5 and text of the rat PK section
[4] = read-out: 1b replicon EC50, Tables 4, 5 and the rat PK section
[5] = Hepatitis C virus, Huh-7, 48 h, Table 1, Huh7 HCV 1b replicon, luciferase reporter, 48 hours, read-out: 1b EC50

| SMILES | EC50 (HCV genotype 1b; [3]) | EC50 (HCV genotype 1b; [4]) | human liver microsome (HLM, % parent remaining) ([1]; after 15 min) | human liver microsome (HLM, % parent remaining) ([1]; after 30 min) | human liver microsome (HLM, % parent remaining) ([1]; after 60 min) | liver stability predicted by in vitro PK profiles [1] | rat liver microsome (RLM), % parent remaining ([2]; after 15 min) | rat liver microsome (RLM), % parent remaining ([2]; after 30 min) | rat liver microsome (RLM), % parent remaining ([2]; after 60 min) | EC50 (HCV genotype 1b; [5]) |
| --- | --- | --- | --- | --- | --- | --- | --- | --- | --- | --- |
| Cn1nc(C(=O)NC2CCN(CCN3CCCCC3)CC2)c2ccc(N3CCCCCC3)nc21 [EBP1047] | 500 to 2000 nM | 500 nM | 78 % parent remaining | 62 % parent remaining | 34 % parent remaining | higher stability in human liver vs rat liver | 44 % parent remaining | 18 % parent remaining | 10 % parent remaining |  |
| CCN1CCC(NC(=O)c2nn(C)c3nc(N4CCCCCC4)ccc23)CC1 [EBP1595] | 500 to 2000 nM | 1000 nM | 73 % parent remaining | 46 % parent remaining | 14 % parent remaining | higher stability in human liver vs rat liver | 67 % parent remaining | 46 % parent remaining | 8 % parent remaining |  |
| Cn1nc(C(=O)NC2CCN(CCN3CCCC3)CC2)c2ccc(N3CCCCCC3)nc21 [EBP1597] | 500 to 2000 nM | 900 nM | 81 % parent remaining | 74 % parent remaining | 57 % parent remaining | higher stability in human liver vs rat liver | 57 % parent remaining | 24 % parent remaining | 15 % parent remaining |  |
| CC(C)N1CCC(NC(=O)c2nn(C)c3nc(N4CCCCCC4)ccc23)CC1 [EBP1604] |  | 2200 nM | 71 % parent remaining | 63 % parent remaining | 28 % parent remaining | higher stability in human liver vs rat liver | 58 % parent remaining | 41 % parent remaining | 14 % parent remaining |  |
| Cn1nc(C(=O)NC2CCNCC2)c2ccc(N3CCCCCC3)nc21.O=C(O)C(F)(F)F.O=C(O)C(F)(F)F [compound 697] |  |  | 96 % parent remaining | 109 % parent remaining | 108 % parent remaining |  | 69 % parent remaining | 42 % parent remaining | 13 % parent remaining | 670 nM |
| CCC(CC)Oc1ccc2c(C(=O)NC3CCNCC3)n[nH]c2n1 [compound 726] |  |  | 86 % parent remaining | 81 % parent remaining | 65 % parent remaining |  | 83 % parent remaining | 69 % parent remaining | 53 % parent remaining | 1200 nM |
| Clc1ccc(Cn2nc(COCCCN3CCCCC3)c3ccc(N4CCCCCC4)nc32)cc1 [compound 749] |  |  |  |  |  |  |  |  |  | 2000 nM |
| CCC(CC)Oc1ccc2c(COCC3CCCNC3)nn(Cc3ccc(Cl)cc3)c2n1.O=C(O)C(F)(F)F (centres unmarked) [compound 755] |  |  |  |  |  |  |  |  |  | 3200 nM |
| O=C(NC1CCNCC1)c1nn(C(=O)C2CCCCC2)c2nc(N3CCCCCC3)ccc12.O=C(O)C(F)(F)F.O=C(O)C(F)(F)F.O=C(O)C(F)(F)F [compound 989] |  |  |  |  |  |  |  |  |  | 2600 nM |
| Cn1nc(C(=O)NC2CCN(CCN3CCCCC3)CC2)c2ccc(N3CCCCCC3)nc21 [compound 1047] |  |  | 78 % parent remaining | 62 % parent remaining | 34 % parent remaining |  | 44 % parent remaining | 18 % parent remaining | 10 % parent remaining | 520 nM |
| Cn1nc(C(=O)NC2CCN(CC3CCCCC3)CC2)c2ccc(N3CCCCCCC3)nc21 [compound 1062] |  |  |  |  |  |  |  |  |  | 356 nM |
| Cn1nc(C(=O)NC2CCN(CC(F)F)CC2)c2ccc(N3CCCCCC3)nc21 [compound 1110] |  |  | 8 % parent remaining | 0.4 % parent remaining | 0.4 % parent remaining |  | 10 % parent remaining | 0.5 % parent remaining | 0.5 % parent remaining | 1800 nM |
| Cn1nc(CCCN2CCCC2)c2ccc(N3CCCCCCC3)nc21 [compound 1171] |  |  | 67 % parent remaining | 44 % parent remaining | 23 % parent remaining |  | 1.2 % parent remaining | 0.5 % parent remaining | 0.3 % parent remaining | 1600 nM |
| Cn1nc(CCCN2CCCCC2CO)c2ccc(N3CCCCCCC3)nc21 (centres unmarked) [compound 1456] |  |  | 28 % parent remaining | 6 % parent remaining | 0.7 % parent remaining |  | 3.9 % parent remaining | 0.4 % parent remaining | 0.2 % parent remaining | 1500 nM |
| CCN1CCC(NC(=O)c2nn(C)c3nc(N4CCCCCC4)ccc23)CC1 [compound 1595] |  |  | 73 % parent remaining | 45 % parent remaining | 14 % parent remaining |  | 67 % parent remaining | 46 % parent remaining | 8 % parent remaining | 740 nM |
| Cn1nc(C(=O)NC2CCN(CCN3CCCC3)CC2)c2ccc(N3CCCCCC3)nc21 [compound 1597] |  |  | 81 % parent remaining | 74 % parent remaining | 58 % parent remaining |  | 57 % parent remaining | 25 % parent remaining | 14 % parent remaining | 770 nM |
